From patent US20220378763A1, “COMPOUND FOR TREATMENT OF ACUTE INFLAMMATION IN THE MYOCARDIUM” (CALPROTECT AB, priority 2019, published 2022)

Experiments:
[1] = test system: C57BL/6 mice with coronary artery ligation for 60 minutes followed by reperfusion; assay: Myocardial ischemia (60 minutes)/reperfusion, short-term (3 days) treatment: echocardiography and flow cytometry; type: in vivo, mouse
Experimental: (a) C57BL/6 mice with MI induced by coronary artery ligation for 60 minutes followed by reperfusion received three daily i.p. injections of ABR or PBS, starting at the time of reperfusion and administered on days 0, 1 and 2 post-MI. Cardiac function was assessed by echocardiography the day before surgery and on days 3, 7, 14 and 21 in the Sham (n=10), Sham+ABR (n=10), MI (n=22) and MI+3d ABR (n=13) groups. […] (F) Neutrophil and (G) monocyte counts in the bone marrow were increased 2 days after myocardial ischaemia/reperfusion in the MI+3d ABR group (n=6) compared to the MI group treated with PBS (n=6). (H) Neutrophil, (I) monocyte, and (J) macrophage numbers in the myocardium in the MI and MI+3d ABR groups on Day 2 post-MI. […] The P-values refer to the difference between the MI and the MI+3d ABR groups. The P-values for the repeated measurement experiments refer to the difference between the MI and the MI+3d ABR groups, analysed by 2-way ANOVA with Fisher LSD post-hoc evaluation. Only the significant P-values are shown. Data is presented as mean±SD.
Ultrasound measurements were performed at day −1 (baseline), 7, and 21 to assess cardiac function using a Vevo 770 echocardiographic imaging system with a 707B probe (VisualSonics, Toronto, Canada). In selected experiments, additional assessment was performed on days 3 and 14. The mice were anesthetized using 1-3% isoflurane and hair was carefully removed using depilatory cream. To maintain body temperature, the mice were placed in supine position on a heated surface (37° C.). Two-dimensional M-mode images were recorded in the parasternal short-axis view at the mid-papillary level. Five complete cardiac cycles were traced to calculate fractional shortening, ejection fraction, left ventricular systolic volume, and left ventricular diastolic volume by using the VisualSonics software.
Procedures were carried out as outlined in Example 2. In contrast to permanent ischemia, the coronary artery occlusion was maintained for 60 minutes followed by removal of the ligature, allowing for reperfusion of the ischemic myocardium. Three doses of 30 mg/Kg ABR-238901 diluted in PBS were administered by daily i.p. injections at the time of the reperfusion, and after 24 h and 48 h (FIG. 5A).

[2] = test system: C57BL/6 mice with MI induced by permanent coronary artery ligation; assay: S100A8/A9 in plasma (ELISA) and myocardium (immunohistochemistry) 3 days post-MI; type: in vivo, mouse
Experimental: Subsequently the hearts were fixed in 4% (w/v) paraformaldehyde and embedded in paraffin. The hearts were sectioned transversely from the apex to the level of the suture, and 6 μm thick sections were collected at 390 μm intervals. The sections were mounted on glass slides and stained with Van Gieson or Masson trichrome stain for quantitative analysis of scar size. Alarmin S100A8/A9 was detected using mouse anti-S100A8/A9 IgG1 antibody (Abcam, ab 130234, 1:100 dilution, O/N 4° C.). Goat anti-mouse IgG1 HRP-conjugated secondary antibody (Abcam, ab 97240, 1 h RT) was used and the staining was developed with ImmPACT™ DAB (Vector, SK-4105) chromogen as substrate. The slides were subsequently scanned using an Aperio digital pathology slide scanner (Leica Biosystems), and images were captured with the ImageScope software (Leica Biosystems). Left ventricle area and the infarcted area were measured on each section by using the BioPix iQ 2.5.0 software (Biopix AB). The size of the post-MI myocardial scar was expressed as percentage of the left ventricle volume below the coronary ligature.
Plasma levels of S100A8/A9 heterodimer was measured by DuoSet®ELISA (R&D Systems, DY8596-05), according to manufacturer instructions. All the samples were diluted 1:100 prior to analysis. Biotinylated goat anti-mouse S100A8/A9 antibody was used as […] antibody and streptavidin-HRP was used for detection. […]

[3] = test system: C57BL/6 mice with sepsis induced by bacterial lipopolysaccharide; assay: LPS-induced sepsis: plasma cytokines by multiplex assay; type: in vivo, mouse; conditions: 24 h after sepsis induction, vs PBS
Experimental: General animal care, induction of sepsis and treatments were performed as described under Example 7. We included 5 mice per treatment group. The mice were sacrificed 24 h after sepsis induction and blood was drawn using cardiac puncture with an EDTA 0.5M coated syringe. Blood was spun down at 3000 rpm for 10 minutes and plasma was collected.
Cytokine measurements were performed using the Cytokine & Chemokine 36-Plex Mouse procartaPlex™ P1A (ThermoFischer Scientific) as per manufacturer's instructions. Data are presented as mean±SD.

[4] = test system: Nur77 in bone marrow-derived monocytes; assay: Nur77 expression in cultured bone marrow-derived monocytes stimulated with S100A9; type: cell-based, mouse; conditions: S100A9 20 μg/mL, ABR-238901 100 μM, 24 h
Experimental: To obtain bone marrow-derived monocytes, bone marrow cells were isolated from femur and tibia of wild-type mice (C57BL/6NRJ) (n=3). Cells were cultured in RPMI-1640 (GIBCO Invitrogen) with 100 U/ml penicillin/streptomycin (GIBCO Invitrogen), 10% heat-inactivated fetal calf serum (FCS; GIBCO Invitrogen) and 20 ng/ml M-CSF (Peprotech) for 3 days. On day 3, unattached cells were collected, and the monocyte phenotype was confirmed by flow cytometry as CD45^+CD11b^+CD115^+ cells. The cells were re-suspended in medium and seeded at a density of 1×10^5 cells/ml. Extracellular S100A9 (20 μg/mL) with or without the S100A9 antagonist ABR-238901 at a concentration of 100 μM were incubated in the presence of 10 μM ZnCl2 (Sigma) and 2 mM CaCl2 for 15 minutes and added to the monocyte culture. Recombinant human endotoxin-free S100A9 protein was provided by Active Biotech AB. Following 24 h stimulation, intracellular Nur77 expression was analysed by flow cytometry.

[5] = 2 days after ischemia/reperfusion

COc1ncc(S(=O)(=O)Nc2cncc(Cl)c2O)cc1Br [ABR-238901, 5-bromo-N-(5-chloro-4-hydroxypyridin-3-yl)-6-methoxypyridine-3-sulfonamide]
Left ventricular EF ([1]; 30 mg/Kg i.p. at reperfusion, 24 h, 48 h, echocardiography, day 3): 42% | Left ventricular EF, average ([1]; 30 mg/Kg i.p. at reperfusion, 24 h, 48 h, echocardiography, day 7): 45% | Left ventricular EF ([1]; 30 mg/Kg i.p. at reperfusion, 24 h, 48 h, echocardiography, day 21): 48% | Numbers of monocytes in the bone marrow [1, 5]: increased | Numbers of neutrophils in the bone marrow [1, 5]: increased | Average EDV vs MI control ([1]; 3 days treatment): no significant differences | Average ESV vs MI control ([1]; 3 days treatment): no significant differences | Cardiac output, average ([1]; 3 days treatment, day 21): 15.7 mL/min | Macrophage infiltration in the myocardium ([1]; day 2 after ischemia/reperfusion): decreased | Plasma levels of S100A8/A9 ([2]; ELISA): reduced | S100A8/A9 presence in the infarcted myocardium ([2]; immunohistochemical staining): reduced | Plasma level of GM-CSF [3]: decreased | Plasma level of IFN-γ [3]: decreased | Plasma level of IL17-A [3]: decreased | Plasma level of IL-1b [3]: decreased | Plasma level of IL-6 [3]: decreased | Plasma level of IL-22 [3]: decreased | Plasma level of LIF [3]: decreased | Plasma level of LIX [3]: decreased | Plasma level of MCP-1 [3]: decreased | S100A9-induced increase of Nur77 expression [4]: inhibited
